According to patent publication US20140294729A1, “METHODS FOR IDENTIFICATION AND USE OF AGENTS TARGETING CANCER STEM CELLS” (Whitehead Institute for Biomedical Research, priority 2008, published 2014):
“Also recorded” adds a separate entry of the source.

Tests used:
HMLEshEcad cells [1] = assay: Co-culture of GFP-labeled HMLEshEcad cells and control HMLE cells (1:20), FACS for GFP positivity; format: cell-based, human
Experimental: (§1) FIGS. 2A-2D depict that passage through the EMT leads to resistance to conventional chemotherapy drugs. FIG. 2A depicts dose response curves of transformed HMLERshCntrl (light gray line) and HMLERshEcad (dark gray line) cells treated with Paclitaxel and Doxorubicin. Dotted line denotes the 50% fraction surviving. […] FIG. 2B depicts the response of immortalized cells to chemotherapy drugs. HMLEshCntrl and HMLEshEcad cells were treated with the indicated drugs at three concentrations for 3 days and assayed for viability using the MTS assay. While Doxorubucin, Actinomycin D, Paclitaxel and Campthotecin are chemotherapeutic drugs, Staurosporine is a general kinase inhibitor that potently induce apoptosis. FIGS. 2C and 2D depict paclitaxel treatment leads to selective expansion of a minority cell population that has undergone an EMT. Control HMLE cells and GFP expressing HMLEshEcad cells were mixed at a ratio of 20:1 and seeded onto 6-well plates in triplicate. DMSO or Paclitaxel at 2.5 nm or 10 nm concentration was added onto the mixed cell populations 1 day after seeding followed by a 3 day incubation. The number of GFP-positive cells at the end of treatment were analyzed by flow cytometry. […] Note the increase in GFP positivity from 5% to 14% upon […] Paclitaxel treatment.
To further characterize the observed drug resistance, we paclitaxel-treated co-cultures of GFP-labeled HMLEshEcad cells and unlabeled controls cells (1:20 ratio).
This was observed independently of whether or not the cell lines had undergone neoplastic transformation. To determine the effect of conventional chemotherapy drugs on a mixture of epithelial cells that have and epithelial cells that have not undergone EMT, we co-mixed GFP-labeled HMLEsiEcad cells with unlabeled HMLEsiGFP cells at a ratio of 1:20, and treated the resulting co-culture with Paclitaxel. This non-stoichiometric mixture provided an internally controlled method to evaluate whether differential drug sensitivity was also manifest under conditions in which epithelial cells having undergone EMT were in the minority.
For the mix experiments, unlabelled and GFP-labeled cells were mixed at the indicated ratios and seeded onto 6-well plates. Triplicate wells were then treated with dmso or the compounds (paclitaxel, salinomycin, abamectin and blasticidin) for 48 hrs. The cells were washed with PBS, trypsinized and analyzed by FACS for GFP positivity.

HMLEshEcad cells [2] = assay: Resistance to cytotoxic agents, immortalized HMLEshCntrl vs HMLEshEcad (MTS viability); format: cell-based, human; conditions: three concentrations, FIG. 2B
Experimental: as §1
However, we postulated that the differential drug sensitivity observed was, rather, a consequence of the respective differentiation states of the immortalized cells from which the cancer cell lines were derived. To directly examine this hypothesis, we treated HMLEsiGFP and HMLEsiEcad cells for a period of […] with a series of chemical compounds at 3 different concentrations each. Included in these compounds were the established chemotherapy drugs Doxorubicin, Paclitaxel, Actinomycin D, Camptothecin as well as a broad kinase inhibitor, Staurosporine.
Doxorubicin, paclitaxel, actinomycin D, campthotecin and staurosporine were purchased from Sigma and dissolved in dimethyl sulfoxide (dmso). 5000 cells in 100 ul of medium were plated per well in 96-well plates. 24 hrs after seeding, compounds at the indicated concentration were added to wells (5 wells per each concentration). Dmso treatment was used as negative control. Cell viability was measured after 72 hrs using the CellTiter96 AQueous Assay (Promega) according to manufacturer's instructions. Dose response curves were generated with GraphPad Prism software (GraphPad Software, Inc.).

HMLERshEcad cells = assay: Dose response of transformed HMLERshCntrl vs HMLERshEcad cells to screen hits; format: cell-based, human; conditions: range of concentrations, FIG. 4D
Experimental: FIG. 4A depicts dose response curves of HMLEshCntrl (A, light gray curve) and HMLEshEcad (A, dark gray curve) cells treated with the 8 compounds identified during the initial screen. 1000 cells of each line were seeded onto 384 well plates and treated with 8 different concentrations of compounds within a 2.5 log range. The cell viability after 3 day treatment was measured by Cell-Titer-Glo. […] FIG. 4B depicts dose response curves of HMLEshCntrl (curve with square data points) and HMLE-Twist (curve with triangular data points) cells treated with the same compounds as in (A). Note that selectivity of Salinomycin, Abamectin, Etoposide and Nigericin (Top, Left-to-Right) is retained even though a different method of EMT induction is used. […] 1 Day after seeding DMSO, Salinomycin (1.25 or 5 μM) or Abamectin (0.25 or 1.25 μM) was added at the indicated concentration. As the GFP vector contains a Blasticidin resistance gene, we used Blasticidin treatment as a positive control for the expansion of GFP-expressing control HMLE cells. After 3 day incubation the mix population of cells were analyzed by flow cytometry and the percentage of GFP-positive cells were determined. […] FIG. 4D depicts dose response curves of transformed HMLERshCntrl (light gray line) and HMLERshEcad (dark gray lines) cells treated with Salinomycin and Abamectin. Dotted line denotes the 50% fraction surviving.

[3] = tested on: SUM159, MDA-MB-231 and T47D cells; assay: Dose response of breast cancer cell lines differing in CSC marker expression; format: cell-based; conditions: range of doses, FIG. 5B
Source text: FIG. 5A depicts flow cytometry analysis of Sum159, MDA-MB-231 and T47D cell lines with respect to cell surface expression of CD44 and CD24. Note that while the majority of cells in Sum159 and MDA-MB-231 line contain large amounts of CSCs, T47D cells have very few such cells. FIG. 5B depicts dose response curves of Sum159, MDA-MB-231 and T47D cell treated with Salinomycin.
Cancer stem cells are resistant to a wide spectrum of treatments and chemotherapeutics. Since the compounds identified using the described screening approach preferentially target epithelial cells having undergone EMT, we wished to determine whether such compounds might also serve to target cancer stem cells.

CC(=O)O[C@H]1C(=O)[C@@]2(C)[C@H]([C@H](OC(=O)c3ccccc3)[C@]3(O)C[C@H](OC(=O)[C@H](O)[C@@H](NC(=O)c4ccccc4)c4ccccc4)C(C)=C1C3(C)C)[C@]1(OC(C)=O)CO[C@@H]1C[C@@H]2O [paclitaxel]
increase in HMLEsiEcad cells having undergone EMT (HMLEshEcad cells [1]; 2.5 nM): more modest increase
increase in HMLEsiEcad cells having undergone EMT relative to DMSO-treated co-cultures (HMLEshEcad cells [1]; 10 nM, after 3 days, 1:20 ratio): 4 fold
increase in the proportion of HMLEshEcad cells compared to DMSO-treated co-cultures (HMLEshEcad cells [1]; 10 nM, treatment for 4 days, 1:20 ratio): 4 fold
GFP positivity after treatment (from 5%) (HMLEshEcad cells [1]; 3 day incubation): 14%
resistance of HMLEshEcad cells relative to HMLEshCntrl control cells (HMLEshEcad cells [2]): increased resistance

CC[C@@H](C(=O)[C@@H](C)[C@@H](O)[C@H](C)[C@@H]1O[C@@H]([C@@H](CC)C(=O)O)CC[C@@H]1C)[C@H]1O[C@]2(C=C[C@@H](O)[C@]3(CC[C@@](C)([C@H]4CC[C@](O)(CC)[C@H](C)O4)O3)O2)[C@H](C)C[C@@H]1C [salinomycin]
selective toxicity for HMLERshEcad (MT tumorigenic) cells (HMLERshEcad cells): selectively toxic
selective toxicity for HMLERshEcad (MT tumorigenic) cells (HMLERshEcad cells; listed as Salinomycin): remains
sensitivity of CSC-enriched SUM159 and MDA-MB-231 relative to CSC-poor T47D cells [3]: positively correlated; also recorded: more sensitive
